For assay [1], the target named is Melanocortin receptor 4 (Homo sapiens, UniProt P32245). Kind of assay: inhibitors of MC4R cAMP signaling – cell-based, TR-FRET, biased antagonists, dose response (AID 602298).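 Also: antagonist potency against agonist-stimulated cAMP production.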 It is filed as functional. For orientation: Time-resolved FRET reads energy transfer from a long-lived donor to a nearby acceptor.
A short description of assay [2]: cAMP pathway inhibition in counterscreen cell line – TR-FRET cAMP detection, counter-screen for MC4R biased antagonist project, dose response (AID 602305).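 Also: U2OS cells stimulated with forskolin near its EC80 as the cAMP inducer; potency is for inhibition of forskolin-stimulated cAMP signaling.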 It is filed as functional, cell-based.

Structures are written as SMILES. Active and inactive are the calls of the source.

Melanocortin receptor 4, sequence (P32245 whole entry): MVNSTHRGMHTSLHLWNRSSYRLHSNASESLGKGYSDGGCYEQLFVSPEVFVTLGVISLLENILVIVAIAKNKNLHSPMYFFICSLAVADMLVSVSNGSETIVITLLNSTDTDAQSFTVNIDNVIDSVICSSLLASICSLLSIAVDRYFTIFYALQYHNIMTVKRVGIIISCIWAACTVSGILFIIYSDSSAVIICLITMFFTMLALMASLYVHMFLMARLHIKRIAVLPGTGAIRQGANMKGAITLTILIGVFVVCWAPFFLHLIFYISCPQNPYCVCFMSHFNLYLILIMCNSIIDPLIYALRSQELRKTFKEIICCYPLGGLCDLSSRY

`Cc1ccc(S(=O)(=O)N(C)CC(=O)OCC(=O)NC(=O)NC(C)C)cc1`: the IC50 in assay [1] and in assay [2] was > 64.6 µM (inactive) each time.

For orientation: IC50 means the concentration at which inhibition is half-maximal.
